Experimental data as given in patent US20080008991A1, “SYSTEM AND METHOD FOR OPTIMIZING DRUG THERAPY FOR THE TREATMENT OF DISEASES” (priority 2000, published 2008).
Where two headings read alike, the source gives them in different places.

Legend:
[1] = test system: HIV; details: lopinavir plus efavirenz and 2 NRTIs, cited from earlier work
[2] = test system: HIV-1; assay: NIQ as predictor of virologic outcome at week 24; assay type: in vivo, human (patients)
[3] = Amprenavir plasma trough concentration by LC-MS/MS in treatment-experienced patients; details: human, in vivo; median; 12 hours after dosing; amprenavir 1200 mg bid with ritonavir or nelfinavir; 17 patients; read-out: Cmin
Description: Patients were enrolled into three parallel treatment groups that included abacavir 300 mg bid, amprenavir 1200 mg bid, and efavirenz 600 mg daily with either low dose ritonavir at 200 mg BID, high dose ritonavir at 500 mg bid, or nelfinavir 1250 mg bid.
Genotyping (VircoGEN II™, VIRCO) and VIRTUAL PHENOTYPE™ were performed on baseline samples. Viral load data were collected at baseline (mean of two pre-therapy samples) and at week 24. Serial pharmacokinetic samples were collected over 12 hours after week 3 for ritonavir-boosted regimens and after week 2 for nelfinavir-boosted regimens.
Amprenavir concentrations in plasma were determined by a validated LC-MS/MS method.
For amprenavir, nelfinavir, and ritonavir, the concentration 12 hours after dosing was used as the Cmin. For each drug, relationships between viral load change at week 24 and the Cmin, fold-change in resistance, and NIQ were fit to a sigmoidal maximum effect model.

**Q.** For `Cc1cccc(C)c1OCC(=O)N[C@@H](Cc1ccccc1)[C@@H](O)C[C@H](Cc1ccccc1)NC(=O)[C@H](C(C)C)N1CCCNC1=O` [lopinavir], which “% of patients with viral load below 400 copies/mL at week 24” value (“% of patients” for short) ([1]; lopinavir IQ 4-15) is on record?
**A.** The value was 80%.

**Q.** What about the “% of patients” value ([1]; lopinavir IQ <4) of the same compound?
**A.** Its value is 70%.

**Q.** And the “% of patients” value ([1]; lopinavir IQ >15)?
**A.** The value was 100%.

**Q.** Which “patients with decrease in viral load to <400 copies/ml at week 24” value ([2]; patients achieving NIQ>3.0) does the source give for `CC(C)CN(C[C@@H](O)[C@H](Cc1ccccc1)NC(=O)O[C@H]1CCOC1)S(=O)(=O)c1ccc(N)cc1` [Amprenavir, amprenavir] here?
**A.** The value was 7/8.

**Q.** What about the “patients with decrease in viral load to <400 copies/ml at week 24” value ([2]; patients with NIQ<3.0) of the same compound?
**A.** Its value is 1/9.

**Q.** What about the concentration at 12 h [3] of the same compound?
**A.** The concentration at 12 h was 1270 ng/mL.
